One series has as its system Staphylococcus aureus. The settings on record: cited from earlier work.
For series [1], the system named is E. faecalis. Put plainly: Growth inhibition screening (broth dilution). As to conditions: Enterococcus faecalis. In kind it is cell-based, Enterococcus faecalis. The method in brief:
(§1)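 Standard NCCLS broth dilution in nutrient broth, with compounds dissolved in DMSO and tested at a final 250 µg/mL per well. About 2.5 × 10^5 cells/mL were inoculated and incubated overnight at 37 °C. Growth was read as culture turbidity at 590 nm.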
(Dilution methods test growth across graded concentrations, often in twofold steps.)

Series [2] relates to B. subtilis. Put plainly: Growth inhibition screening (broth dilution). In kind it is cell-based, Bacillus subtilis. The settings on record: Bacillus subtilis. Summed up: as §1
The subject of series [3] is S. aureus. Put plainly: Growth inhibition screening (broth dilution). It is filed as cell-based, Staphylococcus aureus. As to conditions: Staphylococcus aureus.
Series [4] relates to P. aeruginosa. Put plainly: Growth inhibition screening (broth dilution). In kind it is cell-based, Pseudomonas aeruginosa. The settings on record: Pseudomonas aeruginosa. Summed up:
as §1

Series [5] has as its system E. coli. Put plainly: Growth inhibition screening (broth dilution). In kind it is cell-based, Escherichia coli. The settings on record: Escherichia coli. Summed up: as §1
For series [6], the system named is K. pneumoniae. Put plainly: Growth inhibition screening (broth dilution). In kind it is cell-based, Klebsiella pneumonia. The settings on record: Klebsiella pneumoniae. The method in brief:
as §1

Series [7] has as its system E. faecalis. Put plainly: Minimum inhibitory concentration (broth dilution). In kind it is cell-based. The settings on record: Enterococcus faecalis, alone.
In series [8] the test system is B. subtilis. Put plainly: Minimum inhibitory concentration (broth dilution). It is filed as cell-based. As to conditions: Bacillus subtilis, alone.
The subject of series [9] is S. aureus. Put plainly: Minimum inhibitory concentration (broth dilution). In kind it is cell-based. As to conditions: Staphylococcus aureus, alone.
The test system of series [10] is P. aeruginosa. Put plainly: Minimum inhibitory concentration (broth dilution). In kind it is cell-based. The settings on record: Pseudomonas aeruginosa, alone.
In series [11] the test system is E. coli. Put plainly: Minimum inhibitory concentration (broth dilution). The settings on record: alone. It is filed as cell-based, Escherichia coli.
Series [12] relates to K. pneumoniae. Put plainly: Minimum inhibitory concentration (broth dilution). As to conditions: Klebsiella pneumoniae, alone, read-out: MIC. In kind it is cell-based, Klebsiella pneumonia.
Series [13] relates to E. faecalis. Put plainly: Combination study with AMP or CIP.
In series [14] the test system is S. aureus. Put plainly: Combination study with AMP or CIP.
Series [15] has as its system P. aeruginosa. Put plainly: Combination study with AMP or CIP. The settings on record: combination PS9 + AMP.
In series [16] the test system is E. coli. Put plainly: Combination study with AMP or CIP. As to conditions: combination PS9 + AMP.
Series [17] relates to K. pneumoniae. Put plainly: Combination study with AMP or CIP.
The subject of the next series is HK1. Put plainly: MIC on environmental MDR isolate (microdilution).
The next series concerns HK32. Put plainly: MIC on environmental MDR isolate (microdilution). The settings on record: Enterobacter cloacae.
The subject of a further series is HK41. Put plainly: MIC on environmental MDR isolate (microdilution). As to conditions: Enterobacter cloacae.
For another series, the system named is HK43. Put plainly: MIC on environmental MDR isolate (microdilution). As to conditions: Exiguobacterium mexicanum.
Another series deals with HK91. Put plainly: MIC on environmental MDR isolate (microdilution). The settings on record: Ralstonia.
Another series has as its system SH28. Put plainly: MIC on environmental MDR isolate (microdilution). As to conditions: Aeromonas caviae.
The test system of another series is SH34. Put plainly: MIC on environmental MDR isolate (microdilution). The settings on record: Serratia marcescens.
A further series relates to LG20. Put plainly: MIC on environmental MDR isolate (microdilution). The settings on record: Enterobacter, isolate LG20 Enterobacter sp.
In another series the test system is LG24. Put plainly: MIC on environmental MDR isolate (microdilution). The settings on record: Escherichia coli.
Another series concerns LG33. Put plainly: MIC on environmental MDR isolate (microdilution). As to conditions: Enterobacter.
The subject of the next series is LG51. Put plainly: MIC on environmental MDR isolate (microdilution). As to conditions: Escherichia coli.
The next series relates to LG71. Put plainly: MIC on environmental MDR isolate (microdilution). The settings on record: Enterobacter cloacae.
The next series relates to JST28. Put plainly: MIC on environmental MDR isolate (microdilution). As to conditions: Escherichia coli.
The next series concerns JST61. Put plainly: MIC on environmental MDR isolate (microdilution). As to conditions: Pantoea agglomerans.
The next series relates to JST63. Put plainly: MIC on environmental MDR isolate (microdilution).
The test system of a further series is JST68. Put plainly: MIC on environmental MDR isolate (microdilution). As to conditions: Escherichia coli.
For another series, the system named is JST71. Put plainly: MIC on environmental MDR isolate (microdilution). The settings on record: Enterobacter.
The next series deals with JST78. Put plainly: MIC on environmental MDR isolate (microdilution). The settings on record: Escherichia coli.
The next series deals with SD5. Put plainly: MIC on environmental MDR isolate (microdilution). The settings on record: Escherichia coli, isolate SD5 E. coli.
For another series, the system named is SD6. Put plainly: MIC on environmental MDR isolate (microdilution). The settings on record: Escherichia coli, isolate SD6 E. coli.
The test system of a further series is EcMetAP1. Details: method as in PMID 15506752. The settings on record: Co(II) as the cofactor; cited from earlier work.
In series [18] the test system is human red blood cells (hRBCs). Put plainly: Hemolytic activity. In kind it is cell-based. The procedure: The compound PS9 was evaluated for hemolytic effect on human RBCs. In brief, RBCs suspension 10% (v/v) cleaned with 1 × PBS and resuspended again in 1 × PBS (pH 7.4). […] The samples were centrifuged and absorbance of the supernatant was taken at 415 nm to obtain the percentage of RBCs lysis. Triton X-100 with 1% (v/v) was used as a positive control. Percentage of RBCs lysis was calculated as:% RBCs lysis = (OD415nm sample − OD415nm PBS)/(OD415nm Triton X-100 1% − OD415nm PBS)(1)

The subject of another series is LG1. Put plainly: MIC on environmental MDR isolate (microdilution).

Converted amounts (≈) assume the structure as drawn. Like-named read-outs stand apart in the source and are kept apart here.

Turning to `O=C1Nc2ccc(Cl)cc2/C1=N/NC(=O)c1ccc(N2C(=O)/C(=C\c3ccccc3)N=C2c2ccccc2)cc1` [B], the MIC with Staphylococcus aureus is 12 µg/mL (≈ 22 µM).
For the compound `Cn1nc(C(=O)NC(=O)Nc2ccccc2)c(C(=O)c2ccccc2)c1-c1ccccc1` [D], the MIC with Staphylococcus aureus is 310 µg/mL (≈ 730 µM).
Turning to `CC1(C)S[C@@H]2[C@H](NC(=O)[C@H](N)c3ccccc3)C(=O)N2[C@H]1C(=O)O` [AMP, ampicillin, reference compound], the inhibition at 250 µg/mL with E. faecalis [1], in the series on B. subtilis [2], in the series with S. aureus [3], with P. aeruginosa [4], in the series on E. coli [5] and with K. pneumoniae [6] was 100% each time. Further, the MIC with E. faecalis [7] was 16 µg/mL (≈ 45.8 µM); against B. subtilis [8], 0.25 µg/mL (≈ 0.715 µM); against S. aureus [9], 0.25 µg/mL (≈ 0.715 µM); in the series with P. aeruginosa [10], 1 µg/mL (≈ 2.86 µM); with E. coli [11] (Escherichia coli, read-out: MIC), 1 µg/mL (≈ 2.86 µM); with E. coli [11], 1 µg/mL (≈ 2.86 µM). For the same compound, the MIC stood at 2 µg/mL (≈ 5.72 µM) in the series on K. pneumoniae [12]; 256 µg/mL (≈ 733 µM) against HK1; 1020 µg/mL (≈ 2930 µM) in the series on HK32; 256 µg/mL (≈ 733 µM) in the series with HK41; 1020 µg/mL (≈ 2930 µM) in the series on HK43; 8 µg/mL (≈ 22.9 µM) in the series on HK91. The MIC is 16 µg/mL (≈ 45.8 µM) against SH28; 8 µg/mL (≈ 22.9 µM) with SH34; 32 µg/mL (≈ 91.6 µM) against LG20; below 2 µg/mL with LG24; 8 µg/mL (≈ 22.9 µM) against LG33; 1020 µg/mL (≈ 2930 µM) in the series with LG51. The MIC is 512 µg/mL (≈ 1470 µM) in the series on LG71; 1020 µg/mL (≈ 2930 µM) in the series with JST28; 128 µg/mL (≈ 366 µM) against JST61; 128 µg/mL (≈ 366 µM) with JST63; 64 µg/mL (≈ 183 µM) with JST68; 1020 µg/mL (≈ 2930 µM) in the series on JST71. Also, the MIC was above 1020 µg/mL in the series with JST78, 32 µg/mL (≈ 91.6 µM) with SD5 and 1000 µg/mL (≈ 2860 µM) in the series on SD6. Besides, the “MIC in Combination” value in the series on E. faecalis [13] (combination PS6 + AMP) is 0.50 µg/mL; with E. faecalis [13] (combination PS9 + AMP) it was 0.5 µg/mL; in the series with S. aureus [14] (combination PS6 + AMP) it was 0.0625 µg/mL; in the series with S. aureus [14] (combination PS9 + AMP), 0.0625 µg/mL; in the series with P. aeruginosa [15] it was 0.25 µg/mL; with E. coli [16] it was 0.25 µg/mL. In addition, the “MIC in Combination” value stood at 0.25 µg/mL in the series with K. pneumoniae [17] (combination PS6 + AMP) and 0.5 µg/mL in the series with K. pneumoniae [17] (combination PS9 + AMP).
With `O=C(Nc1nccs1)C(=O)NC1CCCC1` [A, N1-cyclopentyl-N2-(thiazol-2-yl)oxalamide], the IC50 in the series with EcMetAP1 is 67 nM.
Take `COc1ccc([C@]2(C)[C@@H](Cl)C(=O)N2NC(=O)c2cc(-c3ccc(Cl)cc3)n[nH]2)cc1` [C]: in the series with Staphylococcus aureus, the MIC was 0.0025 µg/mL (≈ 0.00561 µM).
For the compound Triton-X 100 [reference compound], the hemolysis in series [18] was determined as 100%.
For the compound `CO/N=C(\C(=O)N[C@@H]1C(=O)N2C(C(=O)O)=C(COC(C)=O)CS[C@H]12)c1csc(N)n1` [CTX, cefotaxime], the MIC in the series with HK1 was 128 µg/mL (≈ 281 µM); in the series on HK32 it was 256 µg/mL (≈ 562 µM); against HK41, 32 µg/mL (≈ 70.3 µM); in the series on HK43, 1020 µg/mL (≈ 2250 µM); against HK91, 8 µg/mL (≈ 17.6 µM); in the series with SH28, below 2 µg/mL. The minimum inhibitory concentration (MIC) in the series on SH34 is 8 µg/mL (≈ 17.6 µM); in the series on LG1, 16 µg/mL (≈ 35.1 µM); in the series on LG20, 32 µg/mL (≈ 70.3 µM); against LG24, 64 µg/mL (≈ 141 µM); in the series with LG33, 8 µg/mL (≈ 17.6 µM); in the series with LG51 it was 64 µg/mL (≈ 141 µM). The MIC against LG71 was 1020 µg/mL (≈ 2250 µM); with JST28, 8 µg/mL (≈ 17.6 µM); in the series with JST61, 256 µg/mL (≈ 562 µM); in the series with JST63, 128 µg/mL (≈ 281 µM); against JST68, 512 µg/mL (≈ 1120 µM); in the series with JST71 it was 1020 µg/mL (≈ 2250 µM). Further, the MIC against JST78 was found to be 128 µg/mL (≈ 281 µM); in the series on SD5, 1000 µg/mL (≈ 2200 µM); against SD6, 1000 µg/mL (≈ 2200 µM).

By MIC is commonly meant the lowest concentration that inhibits growth of the organism. As a reminder, the inhibition is the share of the control response that was lost under treatment. High values mean a strong effect, low ones a weak effect. The term IC50 denotes the midpoint of a concentration-inhibition curve.
